Experimental findings from patent US20020015729A1, “COLONIC DELIVERY OF WEAK ACID DRUGS” (priority 1996, published 2002) are described below.

Data set [1] can be described thus: Solubility of the drug in the colonic pH range. Format: physicochemical. The following applies: pH 4.5 to 8.0.
Data set [2] is described as follows: Dissolution of ridogrel and sodium ridogrel from hard gelatin capsules, USP apparatus 2, 100 rpm, 900 mL phosphate buffer. Conditions: 10 mg in size 2 hard gelatin capsule, pH 5, 6 and 7. Format: physicochemical. As to the method: Into each of three size 2 hard gelatin capsules was weighed 10 mg of ridogrel. Into another three capsules was weighed 10 mg of the sodium ridogrel lyophilisate. The dissolution of ridogrel and sodium ridogrel into 900 mL of phosphate buffer at pH 5, 6 and 7 was tested (USP apparatus 2, 100 rpm).

In the case of `O=C(O)CCCCO/N=C(/c1cccnc1)c1cccc(C(F)(F)F)c1` [ridogrel, (E)-5-[[[3-pyridinyl[3-(trifluoromethyl)phenyl]methylene]amino]oxy]pentanoic acid], the “solubility in the colonic pH range” value in data set [1] is “low”.

Regarding `O=C([O-])CCCCON=C(c1cccnc1)c1cccc(C(F)(F)F)c1.[Na+]` [sodium ridogrel], the entries for the “dissolution rate as a function of pH” value in data set [2] and in data set [2] (listed as sodium salt of ridogrel) were “largely independent of pH” and “greatly improved dissolution rate”, respectively.
